From patent US20040097594A1 (priority 1998, published 2004)
Read-outs that look alike come from different tables or passages of the source.

Columns and labels:
HIV-1 (strain IIIB) = assay: microbe, parasite or virus in culture; format: cell-based; settings: lower line of each compound's entry, read-out: IC50 (MT-4 cells)
HIV-1 protease = HIV-1 protease (Human immunodeficiency virus type 1 group M subtype B, UniProt P04585); assay: biochemical
[1] = Human immunodeficiency virus 1, 120 h, MT4 cells infected with HIV-1 strain IIIB, 5 days
[2] = HIV-1 protease, upper line of each compound's entry, read-out: Ki (enzyme)
[3] = Human immunodeficiency virus 1, IIIB, MT4, 120 h, […]

| Structure (SMILES) | IC50 (HIV-1 (strain IIIB); [1]) | Ki (HIV-1 protease; [2]) | IC50 (HIV-1 (strain IIIB); [3]) | Ki (HIV-1 protease) |
| --- | --- | --- | --- | --- |
| Nc1ccc(S(=O)(=O)N(CC(O)C(Cc2ccccc2)NC(=O)OC2COC3OCCC23)OC2CCCC2)cc1 [Example 171, (3R,3aS,6aR)hexahydrofuro[2,3-b]furan-3-yl N-(1S,2R)-3-[[(4-aminophenyl)sulfonyl](cyclopentyloxy)amino]-1-benzyl-2-hydroxypropyl carbamate] | ≤ 100 nM | < 1 nM |  |  |
| CC(C)ON(C[C@@H](O)[C@H](Cc1ccccc1)NC(=O)O[C@H]1CO[C@H]2OCC[C@H]21)S(=O)(=O)c1cccc(N)c1 [Compound 38] | ≤ 100 nM | < 1 nM |  |  |
| CNc1cccc(S(=O)(=O)N(C[C@@H](O)[C@H](Cc2ccccc2)NC(=O)O[C@H]2CO[C@H]3OCC[C@H]32)OC2CCCC2)c1 [Compound 45, (3R,3aS,6aR)hexahydrofuro[2,3-b]furan-3-yl N-(1S,2R)-3-[[(3-N-methylaminophenyl)sulfonyl](cyclopentyloxy)amino]-1-benzyl-2-hydroxypropylcarbamate] | ≤ 100 nM | < 1 nM |  |  |
| COc1ccc(S(=O)(=O)N(C[C@@H](O)[C@H](Cc2ccccc2)NC(=O)[C@H](CC(N)=O)NC(=O)c2ccc3ccccc3n2)OC2CCCCC2)cc1 [Compound 66] |  |  | ≤ 100 nM | < 1 nM |
| O=C(N[C@@H](Cc1ccccc1)[C@H](O)CN(OC1CCCC1)S(=O)(=O)c1ccc2[nH]ncc2c1)O[C@H]1CCOC1 [Compound 56, (3S)Tetrahydro-3-furanyl N-(1S,2R)-1-benzyl-3-[(cyclopentyloxy)(1H-indazol-5-ylsulfonyl)amino]-2-hydroxypropylcarbamate] | 100 to 500 nM | < 1 nM |  |  |
| COc1ccc(S(=O)(=O)N(C[C@@H](O)[C@H](Cc2ccccc2)NC(=O)OC(C)(C)C)OCC(C)C)cc1 [Compound 22, tert-butyl N-((1S,2R)-1-benzyl-2-hydroxy-3-isobutoxy[(4-methoxyphenyl)sulfonyl]aminopropyl)carbamate] | > 1000 nM |  |  | 1 to 10 nM |
| COc1ccc(S(=O)(=O)N(C[C@@H](O)[C@H](Cc2ccccc2)NC(=O)OC(C)(C)C)OCC2CCCCO2)cc1 (stereo partly drawn) [Compound 19, tert-butyl N-(1S,2R)-1-benzyl-2-hydroxy-3-[[(4-methoxyphenyl)sulfonyl](tetrahydro-2H-pyran-2-ylmethoxy)amino]propylcarbamate] | > 1000 nM | 10 to 100 nM |  |  |
| CC(C)ON(C[C@@H](O)[C@H](Cc1ccccc1)NC(=O)OC(C)(C)C)S(=O)(=O)c1ccc2[nH]cnc2c1 [Compound 3] | > 1000 nM | 10 to 100 nM |  |  |
| O=C(N[C@@H](Cc1ccccc1)[C@H](O)CN(OC1CCCC1)S(=O)(=O)c1ccc2cn[nH]c2c1)OC1CO[C@H]2OCC[C@@H]12 (stereo partly drawn) [Compound 59, (3aS,6aR)Hexahydro[2,3-b]furan-3-yl N-(1S,2R)-1-benzyl-3-[(cyclopentyloxy)(1H-indazol-6-ylsulfonyl)amino]-2-hydroxypropylcarbamate] | ≤ 100 nM | < 1 nM |  |  |
| CCN(C)C(=O)CNc1cccc(S(=O)(=O)N(CC(O)C(Cc2ccccc2)NC(=O)OC2COC3OCCC23)OC2CCCC2)c1 (mixture of isomers) [Example 170, (3R,3aS,6aR)hexahydrofuro[2,3-b]furan-3-yl N-[(1S,2R)-1-benzyl-3-((cyclopentyloxy)[3-(2-[ethyl(methyl)amino]-2-oxoethylamino)phenyl]sulfonylamino)-2-hydroxypropyl)carbamate and (3S,3aR,6aS)hexahydrofuro[2,3-b]furan-3-yl N-[(1S,2R)-1-benzyl-3-((cyclopentyloxy)[3-(2-[ethyl(methyl)amino]-2-oxoethylamino)phenyl]sulfonylamino)-2-hydroxypropyl]carbamate] | ≤ 100 nM | < 1 nM |  |  |
| Nc1n[nH]c2ccc(S(=O)(=O)N(C[C@@H](O)[C@H](Cc3ccccc3)NC(=O)O[C@H]3CO[C@H]4OCC[C@H]43)OC3CCCC3)cc12 [Compound 108, (3R,3aS,6aR)Hexahydrofuro[2,3-b]furan-3-yl N-(1S,2R)-1-benzyl-3-[(cyclopentyloxy) (3-aminoindazole-5-ylsulfonyl)amino]-2-hydroxypropylcarbamate] | > 500 nM | 10 to 100 nM |  |  |
| COc1ccc(S(=O)(=O)N(C[C@@H](O)[C@H](Cc2ccccc2)NC(=O)OC(C)(C)C)OC2CCCC2)cc1 [Compound 7] | > 1000 nM |  |  | 1 to 10 nM |
| COc1ccc(S(=O)(=O)N(C[C@@H](O)[C@H](Cc2ccccc2)NC(=O)OC2CO[C@H]3OCC[C@@H]23)OCC(C)C)cc1 (stereo partly drawn) [Compound 145, (3R,3aS,6aR)hexahydrofuro[2,3-b]furan-3-yl N-((1S,2R)-1-benzyl-2-hydroxy-3-isobutoxy[(4-methoxyphenyl)sulfonyl]aminopropyl)carbamate] | ≤ 100 nM |  |  | < 1 nM |
| CCC(CC)ON(C[C@@H](O)[C@H](Cc1ccccc1)NC(=O)O[C@H]1CO[C@H]2OCC[C@H]21)S(=O)(=O)c1cccc(N)c1 [Example 164, (3R,3aS,6aR)hexahydrofuro[2,3-b]furan-3-yl(1S,2R)-3-[[(3-aminophenyl)sulfonyl](1-ethylpropoxy)amino]-1-benzyl-2-hydroxypropylcarbamate] | ≤ 100 nM | < 1 nM |  |  |
| CC(C)ON(C[C@@H](O)[C@H](Cc1ccccc1)NC(=O)O[C@H]1CCOC1)S(=O)(=O)c1cccc(N)c1 [Compound 61, (3S)tetrahydro-3-furanyl N-(1S,2R)-3-[[(3-aminophenyl)sulfonyl](isopropoxy)amino]-1-benzyl-2-hydroxypropylcarbamate] | 500 to 1000 nM | 1 to 10 nM |  |  |
| CON(C)C(=O)CNc1cccc(S(=O)(=O)N(CC(O)C(Cc2ccccc2)NC(=O)OC2COC3OCCC23)OC2CCCC2)c1 (mixture of isomers) [Compound 88, (3R,3aS,6aR)hexahydrofuro[2,3-b]furan-3-yl N-[(1S,2R)-1-benzyl-3-((cyclopentyloxy)[3-(2-[methoxy(methyl)amino]-2-oxoethylamino)phenyl]sulfonylamino)-2-hydroxypropyl]carbamate and (3S,3aR,6aS)hexahydrofuro[2,3-b]furan-3-yl N-[(1S,2R)-1-benzyl-3-((cyclopentyloxy)[3-(2[methoxy(methyl)amino]-2-oxoethylamino)phenyl]sulfonylamino)-2-hydroxypropyl]carbamate] | ≤ 100 nM | < 1 nM |  |  |
| CC(C)(C)ON(C[C@@H](O)[C@H](Cc1ccccc1)NC(=O)O[C@H]1CCOC1)S(=O)(=O)c1ccccc1 [Compound 111, (3S) Tetrahydro-3-furanyl-N-(1S,2R)-1-benzyl-3-(tertbutyloxy)[(phenyl)sulfonyl]amino-2-hydroxypropylcarbamate] | > 1000 nM | 1 to 10 nM |  |  |
| Nc1cccc(S(=O)(=O)N(C[C@@H](O)[C@H](Cc2ccccc2)NC(=O)O[C@H]2CO[C@H]3OCC[C@H]32)OC2CCCC2)c1 (single isomer, unassigned) [Compound 77] | ≤ 100 nM | < 1 nM |  |  |
| Nc1cccc(S(=O)(=O)N(C[C@@H](O)[C@H](Cc2ccccc2)NC(=O)O[C@H]2CO[C@H]3OCC[C@H]32)OC2CCOCC2)c1 [Compound 147, (3R,3aS,6aR)hexahydrofuro[2,3-b]furan-3-yl 3-[[(3-aminophenyl)sulfonyl](tetrahydro-2H-pyran-4-yloxy)amino]-1-benzyl-2-hydroxypropylcarbamate] |  | < 1 nM | ≤ 100 nM |  |
| O=C(NC(Cc1ccccc1)C(O)CN(OC1CCCC1)S(=O)(=O)c1cccc(NCCO)c1)OC1COC2OCCC12 [Compound 36, (3R,3aS,6aR)hexahydrofuro[2,3-b]furan-3-yl N-(1S,2R)-1-benzyl-3-[(cyclopentyloxy)(3-[(2-hydroxyethyl)amino]phenylsulfonyl)amino]-2-hydroxypropylcarbamate and (3S,3aR,6aS)hexahydrofuro[2,3-b]furan-3-yl N-(1S,2R)-1-benzyl-3-[(cyclopentyloxy) (3-[(2-hydroxyethyl)amino]phenylsulfonyl)amino]-2-hydroxypropylcarbamate] | ≤ 100 nM | < 1 nM |  |  |
| O=C(N[C@@H](Cc1ccccc1)[C@H](O)CN(OC1CCCC1)S(=O)(=O)c1ccc2cn[nH]c2c1)OC1COCOC1 [Compound 60, 1,3-Dioxan-5-yl N-(1S,2R)-1-benzyl-3-[(cyclopentyloxy)(1H-indazol-6-ylsulfonyl)amino]-2-hydroxypropylcarbamate] | 100 to 500 nM | < 1 nM |  |  |
| COC(=O)Nc1nc2cc(S(=O)(=O)N(C[C@@H](O)[C@H](Cc3ccccc3)NC(=O)OC(C)(C)C)OC3CCCC3)ccc2[nH]1 [Compound 130, tert-Butyl-N-((1S,2R)-1-benzyl-3-(cyclopentyloxy)(2-[(methoxycarbonyl)amino]benzimidazol-5-ylsulfonyl)amino-2-hydroxypropyl)carbamate] | ≤ 100 nM | < 1 nM |  |  |
| CC(C)(C)OC(=O)CNc1cccc(S(=O)(=O)N(CC(O)C(Cc2ccccc2)NC(=O)OC2COC3OCCC23)OC2CCCC2)c1 (mixture of isomers) [Compound 30, tert-butyl 2-(3-[[(2R,3S)-3-([(3R,3aS,6aR)hexahydrofuro[2,3-b]furan-3-yloxy]carbonylamino)-2-hydroxy-4-phenylbutyl](cyclopentyloxy)amino]sulfonylanilino)acetate and tert-butyl 2-(3-[[(2R,3S)-3-([(3S,3aR,6aS)hexahydrofuro[2,3-b]furan-3-yloxy]carbonylamino)-2-hydroxy-4-phenylbutyl](cyclopentyloxy)amino]sulfonylanilino)acetate] | 100 to 500 nM | < 1 nM |  |  |
| COC(=O)Nc1nc2cc(S(=O)(=O)N(C[C@@H](O)[C@H](Cc3ccccc3)NC(=O)OC3COCOC3)OC3CCCC3)ccc2[nH]1 [Compound 55, 1,3-Dioxan-5-yl N-(1S,2R)-1-benzyl-3-[(cyclopentyloxy)(2-{(methoxycarbonyl)amino]-1H-benzimidazol-5-ylsulfonyl)amino]-2-hydroxypropylcarbamate] | ≤ 100 nM | < 1 nM |  |  |
